Test results taken from patent publication US20070259014A1, “Compositions for and Methods for Treating Hiv” (VGX PHARMACEUTICALS, INC., priority 2003, published 2007).
Where two headings read alike, the source gives them in different places.

How the values were obtained:
[1] = Sarkar, 2002; cited from earlier work
[2] = target: T1, human glucocorticoid receptor (Homo sapiens, UniProt P04150); settings: cited from earlier work
T1 sequence (P04150 1-777): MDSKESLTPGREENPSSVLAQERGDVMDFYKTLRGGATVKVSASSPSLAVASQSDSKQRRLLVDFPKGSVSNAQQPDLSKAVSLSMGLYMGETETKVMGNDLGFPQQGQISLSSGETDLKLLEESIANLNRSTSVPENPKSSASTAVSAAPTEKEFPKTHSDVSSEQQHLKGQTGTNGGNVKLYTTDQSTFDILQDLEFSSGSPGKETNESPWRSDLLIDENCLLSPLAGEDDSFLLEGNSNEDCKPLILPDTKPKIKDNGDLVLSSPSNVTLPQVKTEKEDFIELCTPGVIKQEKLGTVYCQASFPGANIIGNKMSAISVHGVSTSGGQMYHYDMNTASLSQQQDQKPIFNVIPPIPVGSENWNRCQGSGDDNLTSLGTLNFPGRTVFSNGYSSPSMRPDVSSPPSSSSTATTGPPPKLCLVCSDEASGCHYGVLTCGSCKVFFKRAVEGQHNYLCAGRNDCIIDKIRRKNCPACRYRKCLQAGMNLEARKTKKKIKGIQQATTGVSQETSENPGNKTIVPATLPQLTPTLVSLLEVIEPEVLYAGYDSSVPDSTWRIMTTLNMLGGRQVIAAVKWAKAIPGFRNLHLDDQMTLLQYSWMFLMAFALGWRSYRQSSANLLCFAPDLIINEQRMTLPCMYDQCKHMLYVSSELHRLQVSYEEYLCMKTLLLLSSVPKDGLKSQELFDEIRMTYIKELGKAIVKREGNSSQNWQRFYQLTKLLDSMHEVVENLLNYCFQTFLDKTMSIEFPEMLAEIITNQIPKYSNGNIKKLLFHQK

Progesterone = Progesterone (Homo sapiens, UniProt P06401); settings: comparative activity, Table 2; cited from earlier work
[3] = target: T1, human glucocorticoid receptor; assay: Relative binding affinity to the human glucocorticoid receptor / anti-glucocorticoid activity; settings: comparative ratio of anti-glucocorticoid to anti-progesterone activity
[4] = system: laboratory adapted and clinical isolate viruses (HIV); assay: Inhibition of viral replication, several laboratory adapted and clinical isolate viruses; assay type: cell-based; settings: mifepristone 40-1000 nM (17-430 ng/ml)
HIV-1 BaL = assay: Anti-viral effect in vitro (Table 1), HIV-1 BaL; assay type: cell-based; settings: Lab isolate, R5 (NSI)
HIV-1 89.6 = assay: Anti-viral effect in vitro (Table 1), HIV-1 89.6; assay type: cell-based; settings: HIV-1 89.6, Lab isolate, R5X4
HIV-1 Ada = assay: Anti-viral effect in vitro (Table 1), HIV-1 Ada; assay type: cell-based; settings: Lab isolate, R5 (NSI)
HIV-1 NL43 = assay: Anti-viral effect in vitro (Table 1), HIV-1 NL43; assay type: cell-based; settings: HIV-1 NL43, Lab isolate
91US054 = assay: Anti-viral effect in vitro (Table 1), 91US054; assay type: cell-based, HIV; settings: 91US054, Clinical isolate, R5 (NSI)
91US056 = assay: Anti-viral effect in vitro (Table 1), 91US056; assay type: cell-based, HIV; settings: 91US056, Clinical isolate, R5 (NSI)
92US657 = assay: Anti-viral effect in vitro (Table 1), 92US657; assay type: cell-based, HIV; settings: 92US657, Clinical isolate, R5 (NSI)
92US660 = assay: Anti-viral effect in vitro (Table 1), 92US660; assay type: cell-based, HIV; settings: 92US660, Clinical isolate, R5 (NSI)
92US714 = assay: Anti-viral effect in vitro (Table 1), 92US714; assay type: cell-based, HIV; settings: 92US714, Clinical isolate, R5 (NSI)
92US723 = assay: Anti-viral effect in vitro (Table 1), 92US723; assay type: cell-based, HIV; settings: 92US723, Clinical isolate, R5X4
92US727 = assay: Anti-viral effect in vitro (Table 1), 92US727; assay type: cell-based, HIV; settings: 92US727, Clinical isolate, R5 (NSI)
U1 = assay: Anti-viral effect in vitro (Table 1), U1 infected cell; assay type: cell-based, HIV
J1.1 = assay: Anti-viral effect in vitro (Table 1), J1.1 infected cell; assay type: cell-based, HIV
LL58 = assay: Anti-viral effect in vitro (Table 1), LL58 infected cell; assay type: cell-based, HIV
ACH-2 = assay: Anti-viral effect in vitro (Table 1), ACH-2 infected cell; assay type: cell-based, HIV
OM-10.1 = assay: Anti-viral effect in vitro (Table 1), OM-10.1 infected cell; assay type: cell-based, HIV
[5] = system: HIV+ Patient 1 infected PBMCs; assay: Anti-viral effect in vitro (Table 1), HIV+ Patient 1 infected PBMCs; assay type: cell-based
[6] = system: HIV+ Patient 2 infected PBMCs; assay: Anti-viral effect in vitro (Table 1), HIV+ Patient 2 infected PBMCs; assay type: cell-based
[7] = system: HIV+ Patient 3 infected PBMCs; assay: Anti-viral effect in vitro (Table 1), HIV+ Patient 3 infected PBMCs; assay type: cell-based
[8] = system: HIV+ Patient 4 infected PBMCs; assay: Anti-viral effect in vitro (Table 1), HIV+ Patient 4 infected PBMCs; assay type: cell-based
[9] = system: wild type HIV-1 NL43 virus
[10] = system: alpha 1-acid glycoprotein (AAG); settings: in-vitro studies; cited from earlier work

Chain of Progesterone (P06401 whole entry): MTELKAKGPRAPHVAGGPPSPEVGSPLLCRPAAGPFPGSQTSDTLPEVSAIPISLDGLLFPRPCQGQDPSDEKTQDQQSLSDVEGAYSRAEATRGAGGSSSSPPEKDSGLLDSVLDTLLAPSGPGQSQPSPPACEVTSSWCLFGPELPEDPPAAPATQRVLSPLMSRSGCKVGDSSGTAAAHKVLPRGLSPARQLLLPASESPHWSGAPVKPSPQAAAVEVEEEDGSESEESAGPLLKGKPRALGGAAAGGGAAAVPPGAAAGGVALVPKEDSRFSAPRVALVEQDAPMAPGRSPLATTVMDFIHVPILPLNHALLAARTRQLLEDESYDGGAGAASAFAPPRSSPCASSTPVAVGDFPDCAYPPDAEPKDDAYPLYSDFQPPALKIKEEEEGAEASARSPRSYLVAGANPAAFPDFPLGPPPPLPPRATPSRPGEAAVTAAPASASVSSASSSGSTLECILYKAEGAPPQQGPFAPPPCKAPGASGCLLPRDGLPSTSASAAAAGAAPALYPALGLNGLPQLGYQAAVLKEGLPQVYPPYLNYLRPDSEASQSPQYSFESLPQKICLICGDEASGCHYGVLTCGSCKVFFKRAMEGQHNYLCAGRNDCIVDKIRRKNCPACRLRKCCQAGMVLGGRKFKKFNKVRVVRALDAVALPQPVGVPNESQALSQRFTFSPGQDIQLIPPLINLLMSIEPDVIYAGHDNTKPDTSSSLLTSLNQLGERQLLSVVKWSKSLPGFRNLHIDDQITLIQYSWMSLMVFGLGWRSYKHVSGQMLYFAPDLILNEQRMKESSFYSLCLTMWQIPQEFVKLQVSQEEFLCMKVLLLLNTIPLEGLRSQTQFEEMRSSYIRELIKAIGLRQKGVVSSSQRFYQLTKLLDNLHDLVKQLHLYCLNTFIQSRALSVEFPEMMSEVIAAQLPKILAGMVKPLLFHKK

CC#C[C@]1(C)CCC2C3CCC4=CC(=O)CCC4=C3[C@@H](c3ccc(NC)cc3)C[C@@]21C (some centres unmarked)
Serum levels of the metabolite compared with Mifepristone [1]: always exceeded those of Mifepristone | relative binding affinities to the human glucocorticoid receptor [2]: 61% | Anti-Glucocorticoid ([2]; comparative activity, Table 2): 61% | Anti-Progesterone (Progesterone): 21% | A-G/A-P [3]: 290%

11β-(4dimethylaminophenyl)-17β-hydroxy-17-α-(propyl-lynyl)-4,9-dien-3-one [Mifepristone]
inhibition of viral replication [4]: > 90% | Maximum % Reduction in Viral Replication By Mifepristone in PBMCs (HIV-1 BaL): >90% | Maximum % Reduction in Viral Replication By Mifepristone in PBMCs (HIV-1 89.6): >90% | Maximum % Reduction in Viral Replication By Mifepristone in PBMCs (HIV-1 Ada): >90% | Maximum % Reduction in Viral Replication By Mifepristone in PBMCs (HIV-1 NL43): >90% | Maximum % Reduction in Viral Replication By Mifepristone in PBMCs (91US054): >95% | Maximum % Reduction in Viral Replication By Mifepristone in PBMCs (91US056): >95% | Maximum % Reduction in Viral Replication By Mifepristone in PBMCs (92US657): >80% | Maximum % Reduction in Viral Replication By Mifepristone in PBMCs (92US660): >90% | Maximum % Reduction in Viral Replication By Mifepristone in PBMCs (92US714): >90% | Maximum % Reduction in Viral Replication By Mifepristone in PBMCs (92US723): >90% | Maximum % Reduction in Viral Replication By Mifepristone in PBMCs (92US727): >95% | Maximum % Reduction in Viral Replication By Mifepristone in PBMCs (U1): >95% | Maximum % Reduction in Viral Replication By Mifepristone in PBMCs (J1.1): >95% | Maximum % Reduction in Viral Replication By Mifepristone in PBMCs (LL58): >90% | Maximum % Reduction in Viral Replication By Mifepristone in PBMCs (ACH-2): >95% | Maximum % Reduction in Viral Replication By Mifepristone in PBMCs (OM-10.1): >95% | Maximum % Reduction in Viral Replication By Mifepristone in PBMCs [5]: >95% | Maximum % Reduction in Viral Replication By Mifepristone in PBMCs [6]: >95% | Maximum % Reduction in Viral Replication By Mifepristone in PBMCs [7]: >90% | Maximum % Reduction in Viral Replication By Mifepristone in PBMCs [8]: >95% | mifepristone concentrations that consistently resulted in inhibition of HIV replication ([9]; FIG. 2): 40 to 1000 nM | mifepristone concentrations that consistently resulted in inhibition of HIV replication ([9]; FIG. 2, nM converted to ng/ml): 17 to 430 ng/mL | Inhibition of viral replication by mifepristone ([9]; U937 cells, different concentrations of mifepristone): dose-dependent | IC50 ([9]; read-out: IC50 of mifepristone, inhibition of HIV replication in vitro, FIG. 2, U937 cells infected with wild type HIV-1 NL43): 8 nM | Mifepristone concentrations that saturate AAG [10]: exceeding 2.5 microM

C[C@]12CCC(=O)C=C1CC[C@@H]1[C@@H]2[C@@H](O)C[C@@]2(C)[C@H]1CC[C@]2(O)C(=O)CO [cortisol]
relative binding affinities to the human glucocorticoid receptor [2]: 23%
